Assay results as given in patent publication US8809377B2, “Deubiquitinase inhibitors and methods for use of the same” (The Regents of the University of Michigan, priority 2010, dated 2014).
Residues, ends and D or L forms follow the SMILES beside them. *: point of attachment. Cbz = O=C(OCc1ccccc1)*

Key:
20S proteasome = molecular target: T1, 20S proteasome (Homo sapiens, UniProt P28074); test: Proteasome activity assay in treated cells (Suc-LLVY-AMC); format: cell-based; conditions: 5 μM, 2 hr
T1 construct: endogenous in cells; host or cells: K562 and other CML lines, Z138
T1 sequence (P28074 60-263): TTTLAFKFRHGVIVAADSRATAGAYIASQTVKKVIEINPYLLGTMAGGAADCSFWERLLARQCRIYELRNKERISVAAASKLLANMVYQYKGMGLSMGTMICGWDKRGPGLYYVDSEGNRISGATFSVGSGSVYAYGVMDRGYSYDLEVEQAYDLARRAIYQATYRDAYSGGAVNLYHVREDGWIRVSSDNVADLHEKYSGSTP
Description: (§1) Fluorogenic substrate Suc-LLVY-AMC was used to assay for the chymotryptic-like activity of the 20S proteasome. To assay for in vivo proteasome inhibition cells were treated with WP1130 (5 μM) or MG132 (5 μM) for 2 hours and lysed in ice-cold lysis buffer (50 mM HEPES, pH 7.5, 5 mM EDTA, 150 mM NaCl, 1% Triton X-100). Lysates were clarified by centrifugation at 20,000 RCF for 10 min and equal amounts of protein from each sample were incubated at 37° C. with 100 μM fluorogenic substrate. To assay for direct inhibition of the 20S proteasome in vitro, purified 20S human proteasome (200 ng) was incubated with WP1130 (5 μM), MG132 (5 μM) or Lactacystin (5 μM) for 30 min at 37° C. before addition of the substrates. Fluorescence intensity was measured using a spectrophotometer at excitation 360 nm & emission 460 nm. Assays were performed in triplicate, and statistical significance was determined with a paired Student's t test.

20S human proteasome = molecular target: T2, 20S human proteasome (Homo sapiens, UniProt P28074); test: Proteasome activity assay on purified 20S proteasome; format: biochemical; conditions: 5 μM
T2 construct: purchased BostonBiochem
Description: as §1

ubiquitinated proteins = test: Ubiquitin immunoblot of cell extracts; format: cell-based; conditions: for accumulation of ubiquitinated proteins: Z138 cells; for ubiquitinated protein levels: CML cells
Description: (§2) Total cell lysates were prepared by boiling and sonicating cell pellets in 1× Laemmli reducing sample buffer. To prepare detergent soluble and insoluble fractions, cells were lysed in cold isotonic lysis buffer [10 mM Tris-HCl (pH 7.5), 0.5% Triton X-100, 150 mM NaCl along with Mini-Complete and PhosSTOP] for 15 min on ice and centrifuged 10 min at 20,000 RCF. The clarified supernatant was used as the detergent soluble cell fraction. The residual pellet was washed and extracted in Laemmli reducing sample buffer and briefly sonicated to derive the detergent insoluble fraction. Equal volumes of cellular lysate or equal protein amounts were electrophoresed on SDS-PAGE gels and transferred to nitrocellulose membranes (Whatmann, Dassel, Germany). Proteins were detected by immunoblotting.
Whole cell lysates were prepared by boiling and sonicating the cell pellets in 1× Laemmli reducing sample buffer. To prepare detergent soluble and insoluble fractions, cells were lysed in cold isotonic lysis buffer [10 mM Tris-HCl (pH 7.5), 0.5% Triton X-100, 150 mM NaCl along with Mini-Complete and PhosSTOP] for 15 min on ice and centrifuged 10 minutes at 20,000 RCF. The clarified supernatant was used as a source of the detergent soluble cell fraction. The detergent insoluble fraction was extracted by the sonication of residual pellet in equal volumes of boiling 1× Laemmli reducing sample buffer. Equal volumes of cellular lysate or equal protein amounts were electrophoresed on SDS-PAGE gels.

DUB activity = test: Western / HA-UbVS labeling of DUB activity in intact cells; format: cell-based; conditions: for DUBs labeling (HA-UbVS): Z138 treated cells, AG490 250 μM
Description: (§3) To assay for changes in activity of cellular deubiquitinase enzymes, leukemic cells were lysed in DUB buffer (50 mM Tris pH 7.4, 5 mM MgCl2, 150 mM NaCl) for 10 min at 4° C. The lysates were centrifuged at 20,000 RCF for 10 min and the supernatant was used for DUB labeling. Equal amounts of lysate were incubated with 500 ng of HA-UbVs for 1 hr at room temperature, followed by boiling in reducing sample buffer and resolving by SDS-PAGE. HA immunoblotting was used to detect DUB labeling.
as §3, with “Z138 and HEK293” for “leukemic”, “RFC” for “RCF”, “SDS-PAGE. After protein transfer to nitrocellulose membranes,” for “SDS-PAGE.”
(§4) Cancer Res, 2010. 70(22): p. […] Blood, 2011. 117(11): p. […] Biochem Pharmacol, 2011. 82(4): p. […] Blood, 2007. 109(8): p. 3470-8.

[1] = molecular target: ubiquitin iso-peptidase activity; conditions: read-out: IC50, ubiquitin iso-peptidase activity in cells; cited from earlier work
pStat5 = test: Western blot of pStat5; format: cell-based; conditions: SET, HEL cell lines
Description: as §2, §4

K562 = test: MTT cell growth and survival; format: cell-based; conditions: K562 cell line
From the text: as §4

Hsp70 = Hsp70 immunoblot; format: cell-based; conditions: CML cells
BV-173 and BV-173R = test: Anti-proliferative effects in CML lines; conditions: BV-173 (WT Bcr-Abl) and BV-173R (T315I)
tumor cell = test: Tumor cell proliferation; format: cell-based
From the text: WP1051 and WP1052 represent two earlier chemical analogues of WP1130. […] This was unexpected as WP1051 and WP1052 are chemically identical but structurally distinct isomers. Since apoptosis/anti-proliferative properties of WP1130 are related to its ability to suppress cellular DUBs and induce accumulation of ubiquitinated proteins, WP1051 and 1052 were investigated whether they can affect protein ubiquitination and DUB activity.

USP9X = test: Western / HA-UbVS labeling of USP9X in intact cells or lysates; format: cell-based; conditions: Z138 treated cells
Murine norovirus (MNV) = test: Murine norovirus plaque assay; format: cell-based; conditions: MNV-1 (MOI 5), RAW 264.7, 20 μM, 8 and 12 hours postinfection
Description: Viral titers were determined by plaque assay.
Cells were treated with IFN-β as a positive anti-viral control.

WDT2 = test: MTT cell growth and survival; format: cell-based; conditions: WDT2 cell line
From the text: as §4

Bcr-Abl = Bcr-Abl immunoblot of cell fractions; format: cell-based; conditions: CML cells; WP1130 5 μM, bortezomib 50 nM
cellular DUB activity = test: DUB activity of lysates from treated cells (Ub-AMC, Ub chain disassembly); format: cell-based; conditions: Z138 cells, 5 μM WP1130 or 50 nM bortezomib, by 4 hours
Description: Cells were lysed in ice cold DUB buffer containing 50 mM Tris-HCl, pH 7.5, 0.5% NP-40, 5 mM MgCl2, 150 mM NaCl and 1 mM phenylmethylsulfonylfluoride. Briefly, 5 μg of clarified lysate from untreated or treated cells was incubated with 500 nM Ub-AMC in a 100 μL reaction volume at 37° C. and the release of AMC fluorescence was recorded at ex/em 380/480 using a spectrofluorometer. USP9x was immunoprecipitated from 500 μg of cell lysate and incubated in DUB buffer containing NEM, WP1130 or DMSO in a 100 μL reaction volume for 30 min. The reaction was initiated by the addition of 500 nM Ub-AMC and the release of AMC-fluorescence was recorded.
In vitro disassembly of purified polyubiquitin chains (K-48/K-63 linked) was performed as previously described. Five μg of lysate from untreated or WP1130 treated cells were prepared in DUB buffer and incubated with K48- or K-63 linked chains (1 μg) for 10 min at 37° C. The extent of chain disassembly was assessed by ubiquitin immunoblotting.
Inhibition of cellular deubiquitinases could lead to an increase in high molecular weight ubiquitinated proteins in the absence of proteasome inhibition. […] To directly assess the impact of WP1130 on DUB activity in treated cells, cell lysates from control and treated cells were incubated with ubiquitin-AMC and fluorescence generated as a consequence of substrate cleavage was measured as an indicator of DUB activity.
The effect of WP1130 treatment on in vitro deubiquitination/disassembly of purified K48-linked or K63-linked polyubiquitin chains was evaluated. Lysates from WP1130 treated (2 hr) or untreated cells were incubated with 1 μg of unanchored polyubiquitin chains for 5, 10 and 15 min at 37° C.

Compound: CC(C)C[C@@H](C=O)NC(=O)[C@H](CC(C)C)NC(=O)[C@H](CC(C)C)NC(=O)OCc1ccccc1 [MG-132, reference compound] (Cbz-Leu-Leu-Leu-aldehyde)
- 20S proteasome chymotryptic-like activity in intact cells (in vivo) (20S proteasome): substantially inhibited
- purified 20S proteasome activity (in vitro) (20S human proteasome): substantially inhibited

Compound: N#C/C(=C/c1ccc(O)c(O)c1)C(=O)NCc1ccccc1 [AG490, reference compound]
- accumulation of ubiquitinated proteins (ubiquitinated proteins): did not induce a change
- DUBs labeling (HA-UbVS) (DUB activity): no change

Compound: COc1cc(/C=C/C(=O)CC(=O)/C=C/c2ccc(O)c(OC)c2)ccc1O [curcumin]
- IC50 [1]: 80 to 100 µM

Compound: CCCCC[C@H](O)C/C=C1/C(=O)C=C[C@@H]1C/C=C\CCCC(=O)O [D12-prostaglandin J2]
- IC50 [1]: ~30 µM

Compound: CCC[C@H](NC(=O)C(C#N)C(SCC(O)CO)c1cccc(Br)n1)c1ccccc1 (stereo partly drawn) [Compound 20, 3-(6-Bromopyridin-2-yl)-2-cyano-3-((2,3-dihydroxypropyl)thio)-N—((S)-1-phenylbutyl)propanamide]
- Western Targets: pStat5 (pStat5): pStat5: down-regulated; DUB
- MTT Activity relative to WP1130 (K562): More sensitive
- Western Targets: DUB activity (DUB activity; SET, HEL cell lines): no effect

Compound: C=CCNC1=C2C[C@@H](C)C[C@H](OC)[C@H](O)[C@@H](C)/C=C(\C)[C@H](OC(N)=O)[C@@H](OC)/C=C\C=C(/C)C(=O)NC(=CC1=O)C2=O [Compound 17-AAG, 17-Allylamino-17-demethoxygeldanamycin, reference compound]
- Hsp70 protein levels (Hsp70): induction of Hsp70
- anti-proliferative effects (BV-173 and BV-173R): anti-proliferative effects
- ubiquitinated protein levels (ubiquitinated proteins): no effect

Compound: C[C@H](NC(=O)/C(C#N)=C/c1ccc([N+](=O)[O-])c(O)c1)c1ccccc1 [WP1051]
- suppression of tumor cell proliferation (tumor cell): effective in suppressing tumor cell proliferation
- HA-UbVS labeling of USP9x (USP9X): could suppress the activity
- accumulation of ubiquitinated proteins (ubiquitinated proteins): induce accumulation of ubiquitinated proteins in a dose-dependent fashion
- viral titers by plaque assay (Murine norovirus (MNV)): reduced viral titers

Compound: CCCC(NC(=O)/C(C#N)=C/c1cccc(Br)n1)c1ccc(OCOC)cc1 (stereo not shown) [Compound 6, (E)-3-(6-Bromopyridin-2-yl)-2-cyano-N-(1-(4-(methoxymethoxy)phenyl)butyl)acrylamide]
- MTT Activity relative to WP1130 (WDT2): More sensitive

Compound: CCCC(NC(=O)/C(C#N)=C/c1cccc(Br)n1)c1ccc(O)cc1 (stereo not shown) [Compound 7, (E)-3-(6-Bromopyridin-2-yl)-2-cyano-N-(1-(4-hydroxyphenyl)butyl)acrylamide]
- MTT Activity relative to WP1130 (WDT2): More sensitive

Compound: C=C1C(=O)C2=CC1CCC(=O)C1(C)CCC(OC(C)=O)C(C)(C)C1CC2O (stereo not shown) [shikoccin]
- IC50 [1]: ~15 µM

Compound: O=C(C=Cc1ccccc1)C=Cc1ccccc1 [dibenzylideneacetone]
- IC50 [1]: 20 to 40 µM

Compound: CC(C)C[C@H](NC(=O)[C@H](Cc1ccccc1)NC(=O)c1cnccn1)B(O)O [Bortezomib, reference compound]
- Bcr-Abl trafficking from detergent soluble to insoluble cell fraction (Bcr-Abl): no effect
- reduction of DUB activity (ubiquitin-AMC) (cellular DUB activity): no change
- ubiquitinated protein levels (ubiquitinated proteins): elevated

Compound: CCC(NC(=O)/C(C#N)=C/c1cccc(Br)n1)c1ccc(OCCOC)cc1 (stereo not shown) [Compound 17, (E)-3-(6-Bromopyridin-2-yl)-2-cyano-N-(1-(4-(2-methoxyethoxy)phenyl)propyl)-acrylamide]
- MTT Activity relative to WP1130 (K562): Less sensitive

Compound: C[C@H](NC(=O)/C(C#N)=C/c1ccc(O)c([N+](=O)[O-])c1)c1ccccc1 [WP1052]
- suppression of tumor cell proliferation (tumor cell): failed to show any anti-tumor properties
- accumulation of ubiquitinated proteins (ubiquitinated proteins): failed to show any affect
- DUBs labeling (HA-UbVS) (DUB activity): no DUB inhibition
- viral titers by plaque assay (Murine norovirus (MNV)): not
